Measurements taken from PubChem BioAssay AID276 (DTP/NCI, 2004).
Values joined by “and” are separate entries in the source; they are usually repeats but may differ in a detail not shown here. Equal values may be shown once. Toxic doses and inconclusive results are not listed.

Test system: B6C3F1 mice, Lewis lung carcinoma iv, survival T/C
Assay: NCI In Vivo Anticancer Drug Screen. Data for tumor model Lewis Lung Carcinoma (intravenous) in B6C3F1 mice
Settings: endpoint: median survival time, schedule: Q01DX009 (ip), higher = longer survival
Outline: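 Read-out is survival, expressed as the treated-group measurement over the vehicle control-group measurement. Animals bore a transplantable tumor and were given compound.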

[1] = dose: 12.5 mg/kg/injection, vehicle: saline
[2] = dose: 25.0 mg/kg/injection, vehicle: saline
[3] = dose: 50.0 mg/kg/injection, vehicle: saline
[4] = dose: 100.0 mg/kg/injection, vehicle: saline
[5] = dose: 200.0 mg/kg/injection, vehicle: saline
[6] = dose: 12.0 mg/kg/injection, vehicle: saline
[7] = dose: 12.5 mg/kg/injection, vehicle: saline with Tween-80
[8] = dose: 25.0 mg/kg/injection, vehicle: saline with Tween-80
[9] = dose: 50.0 mg/kg/injection, vehicle: saline with Tween-80
[10] = dose: 100.0 mg/kg/injection, vehicle: saline with Tween-80
[11] = dose: 200.0 mg/kg/injection, vehicle: saline with Tween-80
[12] = dose: 25.0 mg/kg/injection, vehicle: water
[13] = dose: 50.0 mg/kg/injection, vehicle: water

CN(C)CCC(=O)C(=Cc1ccc(O)cc1)C(=O)CCN(C)C
T/C [1]: 97 % of control | T/C [2]: 101 % of control | T/C [3]: 102 % of control | T/C [4]: 105 % of control and 106 % of control | T/C [5]: 104 % of control and 107 % of control

CCn1cnc2c(=S)nc[nH]c21
T/C [6]: 100 % of control | T/C [2]: 99 % of control | T/C [3]: 104 % of control

OC1(CSc2ccccc2)CCCCC1
T/C [7]: 95 % of control and 119 % of control | T/C [8]: 107 % of control | T/C [9]: 94 % of control and 114 % of control | T/C [10]: 103 % of control and 106 % of control | T/C [11]: 100 % of control and 105 % of control | T/C (dose: 400.0 mg/kg/injection, vehicle: saline with Tween-80): 108 % of control and 110 % of control

O=C(O[Si](Cc1ccccc1)(Cc1ccccc1)Cc1ccccc1)N(CCCl)CCCl
T/C (dose: 6.25 mg/kg/injection, vehicle: saline with Tween-80): 100 % of control | T/C [7]: 108 % of control | T/C [8]: 90 % of control and 100 % of control | T/C [9]: 103 % of control | T/C [10]: 108 % of control and 123 % of control | T/C [11]: 124 % of control

CC[As](=O)(O)CC
T/C [3]: 95 % of control | T/C [4]: 103 % of control | T/C [5]: 103 % of control

O=c1n(CC2CO2)c(=O)n(CC2CO2)n1CC1CO1 (configuration not stated)
T/C (dose: 6.25 mg/kg/injection, vehicle: saline): 100 % of control | T/C [1]: 108 % of control | T/C [2]: 108 % of control

NCCCC(N)(C(=O)O)C(F)F (configuration not stated)
T/C (dose: 50.0 mg/kg/injection, vehicle: distilled water + alcohol): 100 % of control | T/C (dose: 100.0 mg/kg/injection, vehicle: distilled water + alcohol): 104 % of control | T/C (dose: 200.0 mg/kg/injection, vehicle: distilled water + alcohol): 105 % of control | T/C (dose: 400.0 mg/kg/injection, vehicle: distilled water + alcohol): 103 % of control | T/C (dose: 800.0 mg/kg/injection, vehicle: distilled water + alcohol): 96 % of control

[Cl][Pt+2][Cl].[NH-]CC1(C[NH-])CCC1
T/C (dose: 1.56 mg/kg/injection, vehicle: suspension in saline): 96 % of control | T/C (dose: 3.12 mg/kg/injection, vehicle: suspension in saline): 105 % of control

CCN(CC)CCOCCO
T/C [6]: 96 % of control | T/C [2]: 99 % of control | T/C [3]: 99 % of control | T/C [4]: 101 % of control

N#CC(OC1OC(COC2OC(CO)C(O)C(O)C2O)C(O)C(O)C1O)c1ccccc1 (configuration not stated)
T/C [12]: 92 % of control | T/C [13]: 97 % of control | T/C (dose: 100.0 mg/kg/injection, vehicle: water): 98 % of control | T/C (dose: 200.0 mg/kg/injection, vehicle: water): 98 % of control | T/C (dose: 400.0 mg/kg/injection, vehicle: water): 98 % of control | T/C (dose: 800.0 mg/kg/injection, vehicle: water): 98 % of control

NC(=O)c1csc(C2O[C@@H](COP(=O)(O)OP(=O)(O)OC[C@H]3OC(n4cnc5c(N)ncnc54)[C@H](O)[C@@H]3O)[C@H](O)[C@@H]2O)n1 (some centres not stated)
T/C (dose: 3.12 mg/kg/injection, vehicle: water): 101 % of control | T/C (dose: 6.25 mg/kg/injection, vehicle: water): 98 % of control | T/C (dose: 12.5 mg/kg/injection, vehicle: water): 104 % of control | T/C [12]: 120 % of control | T/C [13]: 209 % of control

CCCCCCOC(CN(C)C)C(Cl)(Cl)Cl (configuration not stated)
T/C [7]: 106 % of control | T/C [8]: 96 % of control | T/C [9]: 90 % of control | T/C [10]: 95 % of control | T/C [11]: 95 % of control

CCCCCC[C@@H](O)C/C=C\CCCCCCCC(=O)OCCO
T/C [2]: 91 % of control | T/C [3]: 100 % of control | T/C [4]: 99 % of control | T/C [5]: 101 % of control | T/C (dose: 400.0 mg/kg/injection, vehicle: saline): 99 % of control | T/C (dose: 800.0 mg/kg/injection, vehicle: saline): 100 % of control

CNNCc1ccc(C(=O)NC(C)C)cc1
T/C (dose: 100.0 mg/kg/injection, vehicle: Klucel (hydroxypropylcellulose) (HPC)): 153 % of control | T/C (dose: 200.0 mg/kg/injection, vehicle: Klucel (hydroxypropylcellulose) (HPC)): 151 % of control | T/C (dose: 400.0 mg/kg/injection, vehicle: Klucel (hydroxypropylcellulose) (HPC)): 200 % of control
